Format in all cases: functional
Assay [1] deals with Mythimna separata. The assay is described as follows: Stomach toxicity against third-instar Mythimna separata (Oriental armyworm) in compound treated fresh corn leaves assessed as insecticidal activity at 200 mg/L measured after 4 days by leaf-dip method.
The subject of assay [2] is Mythimna separata. The assay is described as follows: Stomach toxicity against third-instar Mythimna separata (Oriental armyworm) in compound treated fresh corn leaves assessed as insecticidal activity at 10 mg/L measured after 4 days by leaf-dip method.
In assay [3] the test system is Mythimna separata. Nature of the assay: Stomach toxicity against third-instar Mythimna separata (Oriental armyworm) in compound treated fresh corn leaves assessed as insecticidal activity at 100 mg/L measured after 4 days by leaf-dip method.
Assay [4] relates to Mythimna separata. The assay is described as follows: Stomach toxicity against third-instar Mythimna separata (Oriental armyworm) in compound treated fresh corn leaves assessed as insecticidal activity at 25 mg/L measured after 4 days by leaf-dip method.
The subject of assay [5] is Mythimna separata. Nature of the assay: Stomach toxicity against third-instar Mythimna separata (Oriental armyworm) in compound treated fresh corn leaves assessed as insecticidal activity at 50 mg/L measured after 4 days by leaf-dip method.
Assay [6] deals with Plutella xylostella. Nature of the assay: Stomach toxicity against third-instar Plutella xylostella (diamondback moth) in compound treated fresh cabbage leaves assessed as insecticidal activity at 50 mg/L measured after 3 days by leaf-dip method.
Assay [7] relates to Spodoptera exigua. The assay is described as follows: Stomach toxicity against third-instar Spodoptera exigua in compound treated fresh cabbage leaves assessed as insecticidal activity at 10 mg/L measured after 3 days by leaf-dip method.
The subject of assay [8] is Spodoptera exigua. Nature of the assay: Stomach toxicity against third-instar Spodoptera exigua in compound treated fresh cabbage leaves assessed as insecticidal activity at 50 mg/L measured after 3 days by leaf-dip method.
The subject of assay [9] is Plutella xylostella. The assay is described as follows: Stomach toxicity against third-instar Plutella xylostella (diamondback moth) in compound treated fresh cabbage leaves assessed as insecticidal activity at 100 mg/L measured after 3 days by leaf-dip method.
The subject of assay [10] is Plutella xylostella. Nature of the assay: Stomach toxicity against third-instar Plutella xylostella (diamondback moth) in compound treated fresh cabbage leaves assessed as insecticidal activity at 200 mg/L measured after 3 days by leaf-dip method.
For assay [11], the system named is Spodoptera exigua. Nature of the assay: Stomach toxicity against third-instar Spodoptera exigua in compound treated fresh cabbage leaves assessed as insecticidal activity at 200 mg/L measured after 3 days by leaf-dip method.
The subject of assay [12] is Ostrinia nubilalis. The assay is described as follows: Stomach toxicity against third-instar Ostrinia nubilalis (European corn borer) in compound treated fresh corn leaves assessed as insecticidal activity at 200 mg/L measured after 4 days by leaf-dip method.
Assay [13] relates to Spodoptera exigua. Nature of the assay: Stomach toxicity against third-instar Spodoptera exigua in compound treated fresh cabbage leaves assessed as insecticidal activity at 100 mg/L measured after 3 days by leaf-dip method.

Each structure is given as a SMILES string.

In the case of `Cc1cc2c(C(=O)NN(C(=O)c3ccc(Cl)cc3)C(C)(C)C)cccc2o1`, in assay [1], the Activity is listed as 0%.

Take `Cc1cc(C)cc(C(=O)N(NC(=O)c2ccccc2)C(C)(C)C)c1`: the Activity in [2] worked out at 80%; in assay [3], 100%; in [4], 100%; in assay [5], 100%; in assay [1], 100%.

Regarding `Cc1cc(C)cc(C(=O)N(NC(=O)c2ccc3cc(C)oc3c2)C(C)(C)C)c1`, the Activity amounted to 70% in assay [6]; 50% in [2]; 100% in assay [3]; 90% in assay [7]; 100% in assay [8]; 100% in assay [4]. The Activity in assay [5] is given as 100%; in assay [9] it was 100%; in [10], 100%; in assay [1] it was 100%; in assay [11], 100%; in [12] it was 40%. Moreover, in assay [13], the Activity came to 100%.

For `Cc1cc(C)cc(C(=O)N(NC(=O)c2ccc3c(c2)OC(C)C3)C(C)(C)C)c1` (configuration not stated), the Activity in [2] is 70%; in [3], 100%; in assay [7], 90%; in assay [8], 100%; in assay [4], 100%; in assay [5], 100%. Also, the Activity is on record as 80% in assay [10]; 100% in assay [1]; 100% in assay [11]; 60% in assay [12]; 100% in assay [13].

Regarding `Cc1cc2c(C(=O)NN(C(=O)c3ccccc3Cl)C(C)(C)C)cccc2o1`, in [1], the Activity is recorded as 0%.

Regarding `Cc1cc2c(C(=O)NN(C(=O)c3cccc(Cl)c3)C(C)(C)C)cccc2o1`, in assay [1], the Activity is 0%.

Consider `Cc1cc2c(C(=O)NN(C(=O)c3cc(Cl)cc(Cl)c3)C(C)(C)C)cccc2o1`, for which the Activity in [1] is 0%.

`Cc1cc2c(C(=O)NN(C(=O)c3cc([N+](=O)[O-])cc([N+](=O)[O-])c3)C(C)(C)C)cccc2o1`: in assay [1], the Activity is 0%.

For `Cc1cc(C)cc(C(=O)N(NC(=O)c2cccc3oc(C)cc23)C(C)(C)C)c1`, the Activity was 50% in assay [10], 80% in assay [1], 70% in assay [11] and 40% in [12].

For `Cc1cc(C)cc(C(=O)N(NC(=O)c2cccc3c2CC(C)O3)C(C)(C)C)c1` (configuration not stated), the Activity in assay [6] came out at 50%; in [2], 60%; in assay [3], 100%; in [7] it was 80%; in assay [8] it was 100%; in [4] it was 100%. The Activity in [5] amounted to 100%; in assay [9], 100%; in assay [10] it was 100%; in [1] it was 100%; in assay [11], 100%; in assay [12], 70%. Besides, the Activity in assay [13] is reported as 100%.

Turning to `Cc1cc(C)cc(C(=O)N(NC(=O)c2cccc3c2OCO3)C(C)(C)C)c1`, the Activity is 100% in [3]; 30% in [4]; 100% in assay [5]; 0% in [10]; 100% in assay [1]; 100% in assay [11]. In addition, the Activity is given as 30% in assay [12] and 80% in assay [13].

In the case of `Cc1cc(C)cc(C(=O)N(NC(=O)c2cccc3c2OCCO3)C(C)(C)C)c1`, in [1], the Activity was 0%.

`Cc1cc(C)cc(C(=O)N(NC(=O)c2cccc3c2CCCO3)C(C)(C)C)c1`: the Activity is recorded as 0% in assay [10], 30% in [1], 0% in [11] and 0% in assay [12].

As for `Cc1cc(C)cc(C(=O)N(NC(=O)C2CCCC3OC(C)CC32)C(C)(C)C)c1` (configuration not stated), the Activity in [1] turned out to be 0%.

On to `Cc1cc(C)cc(C(=O)N(NC(=O)C2CCCCC2)C(C)(C)C)c1`, for which the results for the Activity in assay [3], in [5] and in [1] were 100%, 20% and 100%, respectively.

Regarding `Cc1cc(C)cc(C(=O)N(NC(=O)c2ccc3c(c2C)CCCO3)C(C)(C)C)c1` [CHROMAFENOZIDE], the Activity in [6], in assay [2], in [3], in [7], in assay [8] and in [4] was 100% each time. Also, the Activity in [5], in assay [9], in [10], in assay [1], in assay [11] and in assay [12] was 100% each time. The Activity in [13] was 100%.

Regarding `Cc1cc(C)cc(C(=O)N(NC(=O)c2ccc3c(c2C)OC(C)C3)C(C)(C)C)c1` (configuration not stated) [FUXIAN], the Activity in [6] is on record as 100%; in assay [2] it was 100%; in assay [3], 100%; in assay [7], 90%; in assay [8], 100%; in assay [4] it was 100%. Besides, the Activity in [5], in assay [9], in assay [10], in [1], in assay [11] and in assay [12] was 100% throughout. Besides, the Activity in assay [13] amounted to 100%.

Take `COc1cccc(C(=O)NN(C(=O)c2cc(C)cc(C)c2)C(C)(C)C)c1C` [METHOXYFENOZIDE]: the Activity in [6], in assay [2], in [3], in assay [7], in assay [8] and in assay [4] was 100% throughout. The Activity in assay [5], in assay [9], in assay [10], in assay [1], in [11] and in [12] was 100% in each case. Moreover, the Activity in assay [13] turned out to be 100%.
